Tests used:
[1] = molecular target: T1, purified full-length recombinant human ERα (Homo sapiens, UniProt P03372); assay: Estrogen receptor α competitive radiometric binding assay ([3H]-E2)
T1 sequence (P03372 1-595): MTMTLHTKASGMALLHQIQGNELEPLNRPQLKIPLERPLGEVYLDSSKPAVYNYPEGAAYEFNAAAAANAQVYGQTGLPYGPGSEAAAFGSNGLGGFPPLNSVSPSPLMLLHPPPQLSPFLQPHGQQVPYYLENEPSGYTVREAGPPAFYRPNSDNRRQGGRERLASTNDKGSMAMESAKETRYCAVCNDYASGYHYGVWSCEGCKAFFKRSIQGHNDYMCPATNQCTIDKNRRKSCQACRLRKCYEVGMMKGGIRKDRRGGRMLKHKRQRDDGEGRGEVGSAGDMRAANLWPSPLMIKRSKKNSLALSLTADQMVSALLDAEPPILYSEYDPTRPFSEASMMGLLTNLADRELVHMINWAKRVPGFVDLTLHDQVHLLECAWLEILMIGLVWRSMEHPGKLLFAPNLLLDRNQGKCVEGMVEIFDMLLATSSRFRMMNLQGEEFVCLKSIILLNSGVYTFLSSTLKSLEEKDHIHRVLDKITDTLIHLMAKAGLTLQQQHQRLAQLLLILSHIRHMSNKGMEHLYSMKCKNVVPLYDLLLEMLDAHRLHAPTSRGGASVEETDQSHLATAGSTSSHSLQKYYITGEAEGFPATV
Method: Relative binding affinities (RBA) were determined by competitive radiometric binding assays, using purified full-length recombinant human ERα and ERβ (PanVera, Madison, Wis.). […] After shaking for a few seconds and centrifugation at 1500 g and 4° C. for 10 minutes, 150 μl/well of Optiphase ‘Super Mix’ scintillation liquid was mixed with 50 μl of supernatant of each sample and the radioactivity was measured in a MicroBeta counter (Wallac, Turku, Finland). Data were evaluated by a sigmoidal dose-response curve (Prism, GraphPad Software Inc.) to estimate the concentration of competitor at half-maximal specific binding (IC50). […] The selectivity for ERα and ERβ was obtained from the ratio R of the IC50 for ERα to the IC50 for ERβ for each test compound.

[2] = test system: human endometrial adenocarcinoma Ishikawa cells; assay: Estrogenic and anti-estrogenic activities in vitro: induction of alkaline phosphatase (APase) activity; assay type: cell-based
Method in brief: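 Ishikawa cells in phenol red-free DMEM with 5% charcoal-stripped dFCS; after incubation, APase measured via 5 mM p-nitrophenyl phosphate hydrolysis at pH 9.8, read at 405 nm after 15-60 min at room temperature. EC50 (estrogenic) and IC50 (anti-estrogenic) from sigmoidal dose-response curves.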

## Oc1ccc2c(C3CCCC3)n[nH]c2c1 [Ex 23, 3-cyclopentyl-1H-indazol-6-ol]
[1]
  IC50: 1330 ± 268 nM
[1]; ratio of IC50s of E2 and competitor, E2 set at 100%
  RBA (%) Mean ± S.E.M, ER α: 0.2 ± 0.05%
[2]; Homo sapiens, Ishikawa, 96 h, compound alone, four days, ND = not detected, read-out: Estrogenic activity EC50 (nM) ± S.E.M
  EC50: 1700 ± 168 nM
[2]; in words
  estrogenic effect in alkaline phosphatase activity in the Ishikawa cell model: weak estrogenic effect

Reference: patent US7977364B2, “Indazoles, benzisoxazoles and benzisothiazoles and their use as estrogenic agents” (Laboratoire Thermamex, priority 2004, dated 2011)
